One assay concerns hepatocytes. In words: RNA-seq of hepatocytes stimulated with the compounds of Table 68.
Conditions: not given
In the case of `C[C@H]1[C@H]2N(C(=O)CN(C)N2C(=O)NCc2ccccc2)[C@@H](Cc2ccc(OP(=O)(O)O)cc2)C(=O)N1Cc1cccc2cccnc12` [PRI-724], the “# of genes having significantly altered expression” value is 88.

Take `O=C1NC(=O)/C(=C/c2cccc(C(F)(F)F)c2)S1` [SMI-4a]: the “# of genes having significantly altered expression” value is 1436.

In the case of `CS[C@H]1SC[C@H]2C(=O)N(C)[C@@H](C(C)C)C(=O)OC[C@@H](NC(=O)c3cnc4ccccc4n3)C(=O)N[C@@H](C)C(=O)N(C)[C@@H]1C(=O)N(C)[C@@H](C(C)C)C(=O)OC[C@@H](NC(=O)c1cnc3ccccc3n1)C(=O)N[C@@H](C)C(=O)N2C` [Echinomycin], the “# of genes having significantly altered expression” value is 7161.

For `C[C@@]1(C(=O)Nc2ccc(F)nc2)CCCN1c1nc(Nc2cc(C3CC3)n[nH]2)c2cccn2n1` [BMS-754807], the “# of genes having significantly altered expression” value is given as 302.

As to `CCCCC/C=C\C/C=C\C/C=C\C/C=C\CCCC(=O)NCCCl` [ACEA], the “# of genes having significantly altered expression” value is reported as 2.

Turning to `COc1cccc(-c2cc(NCc3ccc4c(c3)OCO4)nc(N)n2)c1` [Wnt agonist 1], the “# of genes having significantly altered expression” value is reported as 138.

As to `COc1cccc(-n2c(=O)[nH]c3cc(Cl)n(-c4ccc(-c5cccc(OC)c5O)cc4)c3c2=O)c1` [GSK621], the “# of genes having significantly altered expression” value came to 5.

In the case of `CCCCCCCCCCCCCCCCOC[C@H](COP(=O)([O-])OCC[N+](C)(C)C)OC(C)=O` [PAF-C-16], the “# of genes having significantly altered expression” value was 7.

In the case of Varenicline tartrate, the “# of genes having significantly altered expression” value stood at 7.

With `Oc1c(F)cc(-c2cnccc2-c2ccc(N3CCOCC3)cc2)cc1F` [LJI308], the “# of genes having significantly altered expression” value is reported as 1.

Take `COCCOCOc1cc2ccc(-c3ccc(C(=O)O)cc3)cc2cc1C12CC3CC(CC(C3)C1)C2` [CD 2665]: the “# of genes having significantly altered expression” value is 1102.

Consider `CCOC(=O)c1cncn1[C@H](C)c1ccccc1` [Etomidate], for which the “# of genes having significantly altered expression” value is 2.

For `CCN(CC)CCCC(C)Nc1ccnc2cc(Cl)ccc12` (centres unmarked) [Chloroquine phosphate], the “# of genes having significantly altered expression” value stood at 573.

For the molecule `CCC1=C(C)CN(C(=O)NCCc2ccc(S(=O)(=O)NC(=O)N[C@H]3CC[C@H](C)CC3)cc2)C1=O` [Gilmepiride], the “# of genes having significantly altered expression” value was determined as 39.

Take `Cn1cc(-c2ccc3nnc(C(F)(F)c4ccc5ncccc5c4)n3n2)cn1` [JNJ-38877605]: the “# of genes having significantly altered expression” value amounted to 64.

`CCCCCCCCCCCC(=O)OC[C@H](COP(=O)([O-])OCC[N+](C)(C)C)OC(=O)CCCCCCCCCCC` [DLPC]: the “# of genes having significantly altered expression” value amounted to 4.

As to `CC1(C)CC=C(c2cnc3ccccc3c2)c2cc(C(=O)Nc3ccc(C(=O)O)cc3)ccc21` [BMS 195614], the “# of genes having significantly altered expression” value amounted to 46.

Turning to `Cc1ccccc1N=Nc1ccc(NC(=O)c2ccnn2C)c(C)c1` [CH223191], the “# of genes having significantly altered expression” value turned out to be 198.

For Pifithrin-μ, the “# of genes having significantly altered expression” value is reported as 5377.

On to `OCc1ccc(-c2ccc(-c3ccc(CO)s3)o2)s1` [RITA (NSC 652287)], for which the “# of genes having significantly altered expression” value is 105.

The same assay, now with this note: hepatocytes stimulated with the compound; RNA-seq; […].
As for `Cc1ccc(NC(=O)c2ccc(CN3CCN(C)CC3)cc2)cc1Nc1nc(-c2cccnc2)cs1` [Mastinib], the “# of genes having significantly altered expression” value came out at 151.

Regarding `Cc1ccc2nc(NC(=O)CSc3nc4c(c(=O)n3-c3ccccc3)SCC4)sc2c1` [IWP-2], the “# of genes having significantly altered expression” value is 15.

Staying with this assay, now noted: hepatocytes stimulated with the compound; RNA-seq; significance: FPKM≥1, q-value≤0.05, log 2 fold change≥1.5.
Take `NCCc1c[nH]cn1` [Histamine]: the “# of genes having significantly altered expression” value was 20.

Turning to `COc1ccc2[nH]c([S+]([O-])Cc3ncc(C)c(OC)c3C)nc2c1` (centres unmarked) [Omeprazole], the “# of genes having significantly altered expression” value worked out at 61.

For the molecule `CCNC1(C(N)=O)CCN(c2ncnc3c2nc(-c2ccccc2Cl)n3-c2ccc(Cl)cc2)CC1` [Otenabant], the “# of genes having significantly altered expression” value came out at 36.

`C=C(c1ccc(C(=O)O)cc1)c1cc2c(cc1C)C(C)(C)CCC2(C)C` [Bexarotene]: the “# of genes having significantly altered expression” value is 267.

On to `CNC(=O)c1ccccc1Sc1ccc2c(/C=C/c3ccccn3)n[nH]c2c1` [Axitinib], for which the “# of genes having significantly altered expression” value was found to be 5.

For `C=C1/C(=C\C=C2/CCC[C@]3(C)[C@@H]([C@H](C)CCCC(C)(C)O)CC[C@@H]23)C[C@@H](O)C[C@@H]1O` [Calcitrol], the “# of genes having significantly altered expression” value is 1950.

On to `NCC(=O)Nc1ccc(-n2nc(C(F)(F)F)cc2-c2ccc3c(ccc4ccccc43)c2)cc1` [OSU-03012], for which the “# of genes having significantly altered expression” value was 1786.

`OCCn1cc(-c2ccc3c(c2)CC/C3=N\O)c(-c2ccncc2)n1` [GDC-0879]: the “# of genes having significantly altered expression” value was 274.

On to `S=C(NCc1ccc2c(c1)OCO2)N1CCN(c2ncnc3c2oc2ccccc23)CC1` [Amuvatinib], for which the “# of genes having significantly altered expression” value is recorded as 2835.

As to `Cc1c(C(=O)NN2CCCCC2)nn(-c2ccc(Cl)cc2Cl)c1-c1ccc(Cl)cc1` [Rimonabant], the “# of genes having significantly altered expression” value was found to be 1392.

As for Activin, the “# of genes having significantly altered expression” value is on record as 798.

`CC1(C)CCC(c2ccc(Cl)cc2)=C(CN2CCN(c3ccc(C(=O)NS(=O)(=O)c4ccc(N[C@H](CCN5CCOCC5)CSc5ccccc5)c(S(=O)(=O)C(F)(F)F)c4)cc3)CC2)C1` [ABT-263]: the “# of genes having significantly altered expression” value was found to be 1.

In the case of `Oc1c2ccccc2c2c3c(cccc13)N=N2` [SP600125], the “# of genes having significantly altered expression” value turned out to be 193.

For the molecule `C=C1/C(=C\C=C2/CCC[C@]3(C)[C@@H]([C@H](C)/C=C/C=C/C(O)(CC)CC)CC[C@@H]23)C[C@@H](O)C[C@@H]1O` [EB1089], the “# of genes having significantly altered expression” value amounted to 68.

Turning to `CNC(=O)c1cc(Oc2ccc(NC(=O)Nc3ccc(Cl)c(C(F)(F)F)c3)c(F)c2)ccn1` [Regorafenib], the “# of genes having significantly altered expression” value amounted to 10.

Turning to `O=C1CCC(N2C(=O)c3ccccc3C2=O)C(=O)N1` (centres unmarked) [Thalidomide], the “# of genes having significantly altered expression” value was found to be 3092.

In the case of `COc1cc(Nc2c(C#N)cnc3cc(OCCCN4CCN(C)CC4)c(OC)cc23)c(Cl)cc1Cl` [Bosutinib], the “# of genes having significantly altered expression” value was 2184.

`O=c1cc(N2CCOCC2)oc2c(-c3ccccc3)cccc12` [LY294002]: the “# of genes having significantly altered expression” value was determined as 981.

`Cc1nc(Nc2ncc(C(=O)Nc3c(C)cccc3Cl)s2)cc(N2CCN(CCO)CC2)n1` [Dasatinib]: the “# of genes having significantly altered expression” value turned out to be 2970.

Turning to `COCCOc1cnc2ccn([C@H](C)c3nnc4c(F)cc(-c5cnn(C)c5)cn34)c(=O)c2c1` [AMG337], the “# of genes having significantly altered expression” value was found to be 3.

The next assay has as its system primary human hepatocytes. Nature of the assay: RNA-seq of primary human hepatocytes treated with 39 small molecules (pilot and validation). The conditions noted are these: RNA-seq, p-value≤0.05; primary human hepatocytes; the modulated genes are listed in the block.
On to `Oc1nc(-c2ccc(C(F)(F)F)cc2)nc2c1CSCC2` [MT-713, Xav939], for which the “significant modulation of gene expression” value (from here on “significant modulation”) is on record as “significantly (p-value≤0.05) modulate”.

As for `CC1=C(/C=C/C(C)=C/C=C/C(C)=C/C(=O)O)C(C)(C)CCC1` [MT-603, Tretinoin (ATRA)], the “significant modulation” value was “significantly (p-value≤0.05) modulate”.

As for `CN1CCC(CNc2ccc3ncc(-c4cccc(OC(F)(F)F)c4)n3n2)CC1` [MT-254, SGI-1776], the “significant modulation” value is recorded as “significantly (p-value≤0.05) modulate”.

Consider `COc1ccc(C[C@H](NC(C)=O)C(=O)N[C@H]2[C@@H](O)[C@H](n3cnc4c(N(C)C)ncnc43)O[C@@H]2CO)cc1` [MT-993, N-Acetylpurinomycin], for which the “significant modulation” value is “significantly (p-value≤0.05) modulate”.

For the molecule `CNCc1ccc(C)c(NC(=O)c2ccc(Nc3nc(-c4ccccc4)c4ccccc4n3)cc2)c1` [MT-636, Bms833923], the “significant modulation” value is “significantly (p-value≤0.05) modulate”.

On to `CCOc1ccn(-c2ccc(F)cc2)c(=O)c1C(=O)Nc1ccc(Oc2ccnc(N)c2Cl)c(F)c1` [MT-375, Bms777607], for which the “significant modulation” value is reported as “significantly (p-value≤0.05) modulate”.

Take `NNC(=O)c1ccncc1` [MT-312, Isoniazid]: the “significant modulation” value is given as “significantly (p-value≤0.05) modulate”.

Turning to `CC(C)Cc1ccc(C(C)C(=O)O)cc1` (centres unmarked) [MT-662, Ibuprofen], the “significant modulation” value is on record as “significantly (p-value≤0.05) modulate”.

Take `c1ccc(-c2[nH]ncc2-c2ccnc3ccccc23)nc1` [MT-740, LY 364947]: the “significant modulation” value was “significantly (p-value≤0.05) modulate”.

On to `Cc1ccc(NC(=O)c2ccc(CN3CCN(C)CC3)cc2)cc1Nc1nccc(-c2cccnc2)n1` [MT-182, Imatinib], for which the “significant modulation” value is listed as “significantly (p-value≤0.05) modulate”.

Consider `CCCc1cc(=O)[nH]c(=S)[nH]1` [MT-127, Propylthiouracil], for which the “significant modulation” value is listed as “significantly (p-value≤0.05) modulate”.

Staying with this assay, now noted: pilot RNA-seq study of Example 2; significance: FPKM≥0.5, log 2(fold change)≥1, q-value ≤0.05.
As for `Oc1nc(-c2ccc(C(F)(F)F)cc2)nc2c1CSCC2` [MT-713, Xav939], the “Number (#) of genes having significantly changed expression” value is listed as 8.

As to `CC1=C(/C=C/C(C)=C/C=C/C(C)=C/C(=O)O)C(C)(C)CCC1` [MT-603, Tretinoin (ATRA)], the “Number (#) of genes having significantly changed expression” value stood at 30.

As to `CN1CCC(CNc2ccc3ncc(-c4cccc(OC(F)(F)F)c4)n3n2)CC1` [MT-254, SGI-1776], the “Number (#) of genes having significantly changed expression” value came to 64.

Take `CCCC(CCC)C(=O)O` [MT-625, Valproate]: the “Number (#) of genes having significantly changed expression” value amounted to 4.

For the molecule `CO[C@H]1C[C@@H]2CC[C@@H](C)[C@@](O)(O2)C(=O)C(=O)N2CCCC[C@H]2C(=O)O[C@H]([C@H](C)C[C@@H]2CC[C@@H](O)[C@H](OC)C2)CC(=O)[C@H](C)/C=C(\C)[C@@H](O)[C@@H](OC)C(=O)[C@H](C)C[C@H](C)/C=C/C=C/C=C/1C` [MT-882, Rapamycin], the “Number (#) of genes having significantly changed expression” value was 67.

For `CNCc1ccc(C)c(NC(=O)c2ccc(Nc3nc(-c4ccccc4)c4ccccc4n3)cc2)c1` [MT-636, Bms833923], the “Number (#) of genes having significantly changed expression” value came out at 66.

Turning to `CCOc1ccn(-c2ccc(F)cc2)c(=O)c1C(=O)Nc1ccc(Oc2ccnc(N)c2Cl)c(F)c1` [MT-375, Bms777607], the “Number (#) of genes having significantly changed expression” value is recorded as 19.

`NNC(=O)c1ccncc1` [MT-312, Isoniazid]: the “Number (#) of genes having significantly changed expression” value is reported as 14.

Take `CC(C)Cc1ccc(C(C)C(=O)O)cc1` (centres unmarked) [MT-662, Ibuprofen]: the “Number (#) of genes having significantly changed expression” value is 18.

`Cc1ccc(NC(=O)c2ccc(CN3CCN(C)CC3)cc2)cc1Nc1nccc(-c2cccnc2)n1` [MT-182, Imatinib]: the “Number (#) of genes having significantly changed expression” value is recorded as 31.

`CC(=O)Nc1ccc(O)cc1` [MT-922, Acetaminophen (paracetamol)]: the “Number (#) of genes having significantly changed expression” value worked out at 3.

Turning to `CCCc1cc(=O)[nH]c(=S)[nH]1` [MT-127, Propylthiouracil], the “Number (#) of genes having significantly changed expression” value is given as 8.
